Reference: PMC4671058, “Heterologous expression of newly identified galectin-8 from sea urchin embryos produces recombinant protein with lactose binding specificity and anti-adhesive activity” (Scientific Reports, 2015)

Biological target: T1, Pl-GAL-8 (Paracentrotus lividus, UniProt A0A0U5C3R9)
T1 construct: gene galectin-8; tags kept; expressed in E. coli BL21(DE3)
T1 sequence (A0A0U5C3R9 1-311): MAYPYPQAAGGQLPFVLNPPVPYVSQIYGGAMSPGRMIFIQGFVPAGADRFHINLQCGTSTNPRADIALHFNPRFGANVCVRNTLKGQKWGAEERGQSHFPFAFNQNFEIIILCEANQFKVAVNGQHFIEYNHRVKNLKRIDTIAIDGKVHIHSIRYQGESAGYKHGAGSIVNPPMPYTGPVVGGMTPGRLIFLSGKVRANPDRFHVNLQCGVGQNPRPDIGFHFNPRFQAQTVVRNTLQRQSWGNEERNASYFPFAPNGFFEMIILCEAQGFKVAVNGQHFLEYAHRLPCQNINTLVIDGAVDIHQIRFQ
Experiment: inhibition of hemagglutination of human red blood cells
Type: cell-based
Settings: 0.25 uM protein; PBS, room temperature, 40 min; lowest dose tested (1-20 mM)

effective inhibitory concentration: 1 mM
Compound: OC[C@H]1O[C@@H](O[C@H]2[C@H](O)[C@@H](O)C(O)O[C@@H]2CO)[C@H](O)[C@@H](O)[C@H]1O (stereo partly shown) [lactose]
